In publication PMC6301270 (MedChemComm, 2018):

Tested on: T.b. brucei (strain 427) bloodstream form parasites
Test: T.b. brucei single concentration screen (10 μM)
Settings: Trypanosoma brucei, read-out: T.b.brucei % viability (10 µM)

| Compound | viability at 10 µM |
| --- | --- |
| COc1cccc(NC(=O)c2c(NC(=O)c3cccnc3)sc3c2CCC3)c1 [MMV228911, COc1cccc(NC(=O)c2c3CCCc3sc2NC(=O)c4cccnc4)c1] | 97% |
| COc1cccc(-c2cc3c(Nc4cccnc4)nccc3[nH]2)c1 [MMV392832, COc1cccc(c1)c2cc3c(Nc4cccnc4)nccc3[nH]2] | 101% |
| CN1CCN(c2nccc3[nH]c(-c4cccc(F)c4)cc23)CC1 [MMV393144, CN1CCN(CC1)c2nccc3[nH]c(cc23)c4cccc(F)c4] | 59% |
| Cc1cc(O)nc(-n2nc(C)cc2C)n1 [MMV393995, Cc1cc(O)nc(n1)n2nc(C)cc2C] | 71% |
| CCc1nc2ccc(C(=O)NCc3ccc4c(c3)OCO4)cn2c1N(C)Cc1cccs1 [MMV407539, CCc1nc2ccc(cn2c1N(C)Cc3cccs3)C(=O)NCc4ccc5OCOc5c4] | 82% |
| CCOc1ccccc1NC(C)C(=O)Nc1cc(C(F)(F)F)ccc1N1CCOCC1 (centres unmarked) [MMV407834, CCOc1ccccc1NC(C)C(=O)Nc2cc(ccc2N3CCOCC3)C(F)(F)F] | 104% |
| CS(=O)(=O)Cc1nc2ccccc2oc1=O [MMV553002, CS(=O)(=O)CC1=Nc2ccccc2OC1=O] | 114% |
| c1ccc(-c2cc(N3CCCCC3)c3ccccc3n2)nc1 [MMV560185, C1CCN(CC1)c2cc(nc3ccccc23)c4ccccn4] | 112% |
| CCC(Sc1nc2ccccc2o1)C(=O)Nc1nnc(C)s1 (centres unmarked) [MMV611037, CCC(Sc1oc2ccccc2n1)C(=O)Nc3nnc(C)s3] | 113% |
| O=C(NCCN1CCCC1)c1cc(NCCN2CCOCC2)nc2ccc(Cl)cc12 [MMV634140, Clc1ccc2nc(cc(c2c1)C(=O)NCCN1CCCC1)NCCN1CCOCC1] | 89% |
| Cc1nc(-c2ccccn2)nc(N(C)CCc2ccccc2)c1Cl [MMV658988, CN(CCc1ccccc1)c2nc(nc(C)c2Cl)c3ccccn3] | 95% |
| Cc1nc(-c2ccccn2)nc(NCCc2ccc(S(C)(=O)=O)cc2)c1Cl [MMV658993, Cc1nc(nc(NCCc2ccc(cc2)S(=O)(=O)C)c1Cl)c3ccccn3] | 102% |
| Cc1nc(-c2ccccn2)nc(N2CCC(Cc3ccccc3)C2)c1Cl (centres unmarked) [MMV659004, Cc1nc(nc(N2CCC(Cc3ccccc3)C2)c1Cl)c4ccccn4] | 109% |
| FC(F)(F)c1cc(NCCc2ccccc2)nc(-c2ccccn2)n1 [MMV659010, FC(F)(F)c1cc(NCCc2ccccc2)nc(n1)c3ccccn3] | 82% |
| Brc1cncc(-c2cc(NCCCn3ccnc3)nc(-c3ccccc3)n2)c1 [MMV661713, Brc1cncc(c1)c2cc(NCCCn3ccnc3)nc(n2)c4ccccc4] | 98% |
| Clc1cccc(C(c2ccc(CN3CCNCC3)cc2)n2ccnc2)c1 (centres unmarked) [MMV663250, Clc1cccc(c1)C(c2ccc(CN3CCNCC3)cc2)n4ccnc4] | 75% |
| O=C(NCCN1CCCC1)c1cc(NCCCCN2CCC(F)(F)CC2)nc2ccc(Cl)cc12 [MMV667494, FC1(F)CCN(CCCCNc2cc(c3cc(ccc3n2)Cl)C(=O)NCCN2CCCC2)CC1] | 56% |
| Nc1ncc(-c2ccc(C(F)(F)F)nc2)cc1-c1ccc(C(F)(F)F)nc1 [MMV668727, Nc1ncc(cc1c2ccc(nc2)C(F)(F)F)c3ccc(nc3)C(F)(F)F] | 75% |
| Cc1[nH]c2cc(F)cc(F)c2c(=O)c1-c1ccc(Oc2ccc(OC(F)(F)F)cc2)cc1 [MMV671636, CC1=C(C(=O)c2c(F)cc(F)cc2N1)c3ccc(Oc4ccc(OC(F)(F)F)cc4)cc3] | 101% |

| Compound | viability at 10 µM |
| --- | --- |
| CC(C)(C)c1ccc(N[C@@H]2CCCC[C@H]2NC(=O)c2ccco2)cc1 [MMV675969, CC(C)(C)c1ccc(N[C@@H]2CCCC[C@H]2NC(=O)c3occc3)cc1] | 114% |
| COc1ccc(-c2nn(C(C)C)c3ncnc(N)c23)cc1OC [MMV675993, COc1ccc(cc1OC)c2nn(C(C)C)c3ncnc(N)c23] | 38% |
| Clc1ccc(-n2cc(COc3ccnc4ccccc34)nn2)cc1 [MMV675994, Clc1ccc(cc1)n2cc(COc3ccnc4ccccc34)nn2] | 91% |
| COc1ccc(N(CCc2cccc(C)n2)C(C)=O)cc1 [MMV675995, COc1ccc(cc1)N(CCc2cccc(C)n2)C(=O)C] | 108% |
| COc1ccc(N(CCc2cccc(C)n2)C(=O)C2CCCCC2)cc1 [MMV675996, COc1ccc(cc1)N(CCc2cccc(C)n2)C(=O)C3CCCCC3] | 107% |
| N#CCN(CCCCN1CCN(c2ccc(F)cc2)CC1)C(=O)OCc1ccccc1 [MMV675997, Fc1ccc(cc1)N2CCN(CCCCN(CC#N)C(=O)OCc3ccccc3)CC2] | 97% |
| O=C(Nc1c(O)cccc1-c1nc2c(C(=O)O)cccc2o1)c1cc(-c2ccccc2)on1 [MMV676008, OC(=O)c1cccc2oc(nc12)c3cccc(O)c3NC(=O)c4cc(on4)c5ccccc5] | 110% |
| Clc1ccc(Cl)c(CO[C@H]2CCCC[C@@H]2n2ccnc2)c1 [MMV676048, Clc1ccc(Cl)c(CO[C@H]2CCCC[C@@H]2n3ccnc3)c1] | 104% |
| CS(=O)(=O)N1CCC(Cn2nc(Cc3cccc4ccccc34)c3c(N)ncnc32)CC1 [MMV676050, CS(=O)(=O)N1CCC(Cn2nc(Cc3cccc4ccccc34)c5c(N)ncnc25)CC1] | 117% |
| COc1cc(NC(=O)Cc2nn(C)c(=O)c3ccccc23)ccc1Cl [MMV676053, COc1cc(NC(=O)CC2=NN(C)C(=O)c3ccccc23)ccc1Cl] | 100% |
| CC(C)(C)OC(=O)N1CCN(c2cc(-c3ccc(Oc4ccccc4)cc3)n[nH]2)CC1 [MMV676057, CC(C)(C)OC(=O)N1CCN(CC1)c2cc(n[nH]2)c3ccc(Oc4ccccc4)cc3] | 21% |
| CCCCc1ccc(NC(=O)Nc2ccc(O[C@H]3CCCC[C@@H]3N(C)c3ccccc3)c(F)c2)cc1 [MMV676063, CCCCc1ccc(NC(=O)Nc2ccc(O[C@H]3CCCC[C@@H]3N(C)c4ccccc4)c(F)c2)cc1] | 91% |
| CC(=O)N(CCN(C(=O)c1ccc(F)cc1)c1ccccc1)c1ccccc1 [MMV676064, CC(=O)N(CCN(C(=O)c1ccc(F)cc1)c2ccccc2)c3ccccc3] | 100% |
| Clc1cccc(CO[C@H]2CCc3ccccc3[C@@H]2n2ccnn2)c1 [MMV676159, Clc1cccc(CO[C@H]2CCc3ccccc3[C@@H]2n4ccnn4)c1] | 96% |
| c1ccc(Oc2ccc(-c3cc(CN4CCOCC4)[nH]n3)cc2)cc1 [MMV676161, C(N1CCOCC1)c2cc(n[nH]2)c3ccc(Oc4ccccc4)cc3] | 43% |
| O=C(Nc1ccccc1-c1nc2c(C(=O)O)cccc2o1)c1ccccc1 [MMV676162, OC(=O)c1cccc2oc(nc12)c3ccccc3NC(=O)c4ccccc4] | 101% |
| Nc1ncnc2c1c(Cc1cccc3ccccc13)nn2CC1CCNCC1 [MMV676182, Nc1ncnc2c1c(Cc3cccc4ccccc34)nn2CC5CCNCC5] | 98% |
| COC(=O)c1cccc2oc(-c3cccc(OC)c3NC(=O)c3cc(-c4ccccc4)on3)nc12 [MMV676186, COC(=O)c1cccc2oc(nc12)c3cccc(OC)c3NC(=O)c4cc(on4)c5ccccc5] | 90% |
| CC(C)C(Oc1cccc2ccccc12)C(=O)O (centres unmarked) [MMV676191, CC(C)C(Oc1cccc2ccccc12)C(=O)O] | 103% |

| Compound | viability at 10 µM |
| --- | --- |
| O=C(c1ccc(F)cc1)N(CCNc1ccccc1)c1ccccc1 [MMV676204, Fc1ccc(cc1)C(=O)N(CCNc2ccccc2)c3ccccc3] | 97% |
| CN1CCN(c2nccc3nc(-c4ccc(F)c(F)c4)[nH]c23)CC1 [MMV676260, CN1CCN(CC1)c2nccc3nc([nH]c23)c4ccc(F)c(F)c4] | 49% |
| C[C@H](C(N)=O)N1CCCC[C@H]1c1ccc(OCc2cccc(F)c2)cc1 [MMV676269, C[C@@H](N1CCCC[C@H]1c2ccc(OCc3cccc(F)c3)cc2)C(=O)N] | 92% |
| C[C@H](C(N)=O)N1CCCC[C@@H]1c1ccc(OCc2cccc(F)c2)cc1 [MMV676270, C[C@@H](N1CCCC[C@@H]1c2ccc(OCc3cccc(F)c3)cc2)C(=O)N] | 97% |
| Cc1cnc(CCNC(=O)c2cc(-c3ccc(Cl)cc3)cs2)[nH]1 [MMV676350, Cc1cnc(CCNC(=O)c2cc(cs2)c3ccc(Cl)cc3)[nH]1] | 47% |
| Nc1ncc(Br)cc1-c1nc2cc(Cl)cnc2[nH]1 [MMV676358, Nc1ncc(Br)cc1c2nc3cc(Cl)cnc3[nH]2] | 98% |
| Brc1c(-c2ccc3c(c2)OCO3)nc2ncccn12 [MMV676377, Brc1c(nc2ncccn12)c3ccc4OCOc4c3] | 96% |
| COc1cccc(OCC(=O)c2ccc(Br)cc2)c1 [MMV676379, COc1cccc(OCC(=O)c2ccc(Br)cc2)c1] | 104% |
| CC(=O)Nc1ccc(NC(=O)c2cc(-c3cc(Cl)ccc3O)[nH]n2)cc1 [MMV676380, CC(=O)Nc1ccc(NC(=O)c2cc([nH]n2)c3cc(Cl)ccc3O)cc1] | 78% |
| Cn1ncc2c(N3CCOCC3)nc(NCCc3c[nH]c4ccccc34)nc21 [MMV676382, Cn1ncc2c(nc(NCCc3c[nH]c4ccccc34)nc12)N1CCOCC1] | 93% |
| CCC(Sc1nc2ccccc2o1)C(=O)Nc1nccs1 (centres unmarked) [MMV676383, CCC(Sc1oc2ccccc2n1)C(=O)Nc3nccs3] | 86% |
| N#Cc1nc(-c2ccccc2F)oc1NCCc1ccccc1 [MMV676384, Fc1ccccc1c2oc(NCCc3ccccc3)c(n2)C#N] | 107% |
| Cc1cccc(Cn2ccc(NC(=O)c3ccc4c(c3)OCO4)n2)c1 [MMV676386, Cc1cccc(Cn2ccc(NC(=O)c3ccc4OCOc4c3)n2)c1] | 95% |
| COc1cccc(-n2nnnc2S(=O)(=O)Cc2ccccc2)c1 [MMV676388, COc1cccc(c1)n2nnnc2S(=O)(=O)Cc3ccccc3] | 87% |
| O=C(c1[nH]nc2c1CCCC2)N1CCN(Cc2ccc3c(c2)OCO3)CC1 [MMV676389, O=C(N1CCN(Cc2ccc3OCOc3c2)CC1)c4[nH]nc5CCCCc45] | 95% |
| O=C(Nc1cccnc1)c1c(O)c2cccc3c2n(c1=O)CC3 [MMV676395, OC1=C(C(=O)Nc2cccnc2)C(=O)N3CCc4cccc1c34] | 106% |
| CCS(=O)(=O)N(Cc1ccco1)Cc1cc2ccc(C)cc2nc1O [MMV676398, CCS(=O)(=O)N(Cc1occc1)Cc2cc3ccc(C)cc3nc2O] | 86% |
| c1coc(CNc2nc(N3CCCCC3)nc3ccccc23)c1 [MMV676401, C(Nc1nc(nc2ccccc12)N3CCCCC3)c4occc4] | 58% |
